Results published in patent publication US9675591B2, “Methods for treating seizure disorders and pain” (THE REGENTS OF THE UNIVERSITY OF CALIFORNIA, priority 2013, dated 2017).
“And” between values parts separate entries of the source, which are not always exact repeats. Equal values may be shown once. Read-outs that look alike come from different tables or passages of the source.

Tests used:
MES-induced seizures [1] = test: Maximal electroshock (MES) seizure test, rats (ASP, methylcellulose suspension); format: in vivo; settings: for ED50: Rattus norvegicus, read-out: ED50, seizure protection in the MES test
Method: SKA-19 was tested under the auspices of the National Institutes of Health's Anticonvulsant Screening Program (ASP). Experiments were performed in male albino CF (Carworth Farms) No. 1 mice or Sprague-Dawley rats according to the established protocols of the ASP (White et al., 2002). SKA-19 was suspended in 0.5% methylcellulose and administered in a volume that permits accuracy of dosage without excessively contributing to total body fluid (0.01 ml/g body weight for mice and 0.04 ml/10 g body weight for rats).
Animals received an electrical stimulus of 0.2 s duration (50 mA in mice and 150 mA in rat at 60 Hz) delivered via corneal electrodes primed with an electrolyte solution containing 0.5% tetracaine. Animals were restrained by hand and released immediately after stimulation to permit observation of the seizure throughout its entire course. In the initial screens to identify anticonvulsant activity mice were tested at 30 minutes and 4 hours following doses of 3, 10, 30, 100 and 300 mg/kg of SKA-19 and rats tested at time intervals between 0.25 and 4 hours following a standard oral dose of 30 mg/kg. In the subsequent, more quantitative tests at least four doses of SKA-19 (n=8 per dose) were tested at the previously determined time of peak effect (TPE). Abolition of hindlimb tonic extension indicates the test compound's ability to inhibit MES-induced seizure spread. Tonic extension is considered abolished if the hind limbs are not fully extended at 180° with the body.

[2] = Motor toxicity, horizontal screen test in mice; format: in vivo; settings: in vivo, ip, i.p. as solution, 10 min time point, read-out: TD50, neurological impairment (horizontal screen)
Method: (§1) Abnormal neurological status in mice following SKA-19 administration was evaluated with the rotorod test. When a normal mouse is placed on a rod 1 inch in diameter that rotates at a speed of 6 rpm, the mouse can maintain equilibrium for a long time. Inability of the mouse to stay on the rotating rod in three trials for 1 min is taken as an indication of motor impairment. […] Mice were placed on a horizontally oriented grid (consisting of parallel 1.5-mm diameter rods situated 1 cm apart), and the grid was inverted. Animals that fell from the grid within 10 s were scored as impaired.
(§2) The mouse maximal electroshock (MES) and 6 Hz seizure models were used. Motor toxicity was assessed using a modification of the horizontal screen test. ED50 values in the seizure models and TD50 values in the toxicity test were determined by nonlinear fitting of dose-response curves. […] Drugs solutions were injected intraperitoneally 10 min prior to administration of the electrical stimulus in a volume of 10 ml/kg body weight.

mice = test: Motor toxicity, horizontal screen test in mice; format: in vivo; settings: i.p. as solution, 10 min time point
Method: as §1, §2

formalin-induced pain = test: Formalin pain assay; format: in vivo, mice; settings: 5 mg/kg
Method: SKA-19 was administered at a dose of 5 mg/kg to CF-1 male mice. At the previously determined time of peak anticonvulsant effect 0.5% formalin was injected sub-dermally into the plantar surface of the right hind foot. For each animal the amount of time (s) spent licking the affected hind paw in a two minute period was recorded at 5 minute intervals and continued for 45 minutes through both the acute and inflammatory phase.

MES-induced seizures [3] = test: MES seizure test, CF-1 mice, compounds given i.p. as solution; format: in vivo
Method: MES assays were performed at the Department of Neurology at the University of California with CF-1 mice. This study was approved by the University of California, Davis, Animal Use and Care Committee and conducted in accordance with the guidelines of Animal Use and Care of the National Institutes of Health and the University of California. For these assays, stock solutions of SKA-19 (5 mg/ml) were prepared in 5% CremophorEL (Sigma-Aldrich, St. Louis, Mo., USA) and 95% saline, diluted further with saline, and SKA-19 was administered i.p. in a volume of 10 ml/kg body weight. Animals were subjected to a 0.2-s, 60-Hz electrical stimulus through corneal electrodes (5 mm diameter stainless steel balls). The electroshock unit was adjusted to deliver a constant current of 50 mA. Immediately before stimulation, the corneal electrodes were wetted with saline to provide good electrical contact. Animals failing to show tonic hindlimb extension were scored as protected (Kokate et al., 1994).
as §2

[4] = test system: Metrazol seizure threshold; test: Infusion of Metrazol (i.v. Met) seizure threshold test; format: in vivo, mice
Method: The i.v. Met test provides a measure of a test substance's ability to raise or lower seizure threshold. Two doses of the test compound are usually employed in this test, the MES ED50 and the TD50 determined following i.p. quantification testing in mice. SKA-19 was accordingly tested at 5 and 30 mg/kg. Randomly selected mice (n=30) were injected i.p. 2 minutes apart with either the vehicle or the two test drug doses. At the previously determined TPE, 0.5% heparinized Metrazol solution was infused at a constant rate of 0.34 ml/min into a lateral tail vein. The time in seconds from the start of the infusion to the appearance of the “first twitch” and the onset of sustained clonus is recorded. The times to each endpoint are converted to mg/kg of Metrazol for each mouse as follows: mg/kg Met=Infusion time (T)×Rate of infusion (ml/min)×mg Met/ml×1000 g/60 sec×Weight (W) of animal in g=T×0.34×5×1000=28.33×T=mg/kg of Metrazol 60×W W. The mean and S.E. for each of the 3 groups and the significance of the difference between the test groups and the control are calculated.

Structure (SMILES): Nc1nc2ccc(SC(F)(F)F)cc2s1 [SKA-19, 6-((trifluoromethyl)thio)benzo[d]thiazol-2-amine]
- ED50 (MES-induced seizures [1]; ip, 1 h time point): 1.6 mg/kg
- ED50 (MES-induced seizures [1]; oral (SKA-19: 4 h time point)): 2.33 mg/kg
- protective index PI (TD50/ED50) (MES-induced seizures [1]; i.p.): 8.9
- protective index PI (TD50/ED50) (MES-induced seizures [1]; oral): ~33 and 33.2
- protection from MES induced seizures, initial screen (MES-induced seizures [1]; oral 30 mg/kg, 0.25, 0.5, 1, 2 and 4 h): fully protected
- TD50 at 10 min ([2]; CF-1, mouse): 16.1 mg/kg
- TD50 at 10 min ([2]; mouse): 16.1 mg/kg
- TD50, neurological impairment (horizontal screen) (mice): 16.33 mg/kg
- reduction of paw licking (area under curve), Phase II (formalin-induced pain; 2 hours prior to formalin): 31.3%
- reduction of total paw licking (area under curve), Phase I (formalin-induced pain; 2 hours prior to formalin): 54.5%
- time spent licking the affected hindpaw (formalin-induced pain; 2 h prior to formalin): significantly decreased
- duration of full protection (MES-induced seizures [3]; 10 mg/kg i.p. as solution): 2.5 h
- duration of significant seizure protection (MES-induced seizures [3]; 5 and 6 mg/kg i.p. as solution): at least 90 min
- duration of protective activity (MES-induced seizures [3]; MES test, 10 mg/kg i.p. as solution): up to 4 h
- ED50 (MES-induced seizures [3]; Mus musculus, ip, 10 min, i.p. as solution, 10 min time point, read-out: ED50, seizure protection in the MES test): 4.93 mg/kg
- onset of protection from seizures after application (MES-induced seizures [3]; i.p. as solution): ≤ 5 min
- protective index PI (TD50/ED50) (MES-induced seizures [3]; i.p. as solution, 10 min time point): 3.2
- time or metrazole dose to the first twitch or clonus ([4]; 5 mg/kg i.p.): did not change
- proconvulsant action ([4]; 5 and 30 mg/kg i.p.): not proconvulsant
- Metrazole dose to first clonus ([4]; SKA-19 30 mg/kg i.p.): 37.2 ± 1.25 mg/kg
- Metrazole dose to first twitch ([4]; SKA-19 30 mg/kg i.p.): 31.6 ± 1.0 mg/kg
